Experimental findings from article PMC4406087, “Remaining challenges in cellular flavin cofactor homeostasis and flavoprotein biogenesis” (Frontiers in Chemistry, 2015) are described below.

In assay [1] the target is T1, 6His-hFADS2 (Homo sapiens, UniProt Q8NFF5).
T1 construct: gene FLAD1; recombinant 6His-tagged cytosolic isoform 2, purified
Nature of the assay: flavin fluorescence of protein band on SDS-PAGE under UV. As to conditions: tightly but not covalently bound, 1 mol FAD per monomer; fluorescence lost on transfer to apo-Me2GlyDH. In kind it is biochemical.

In the next assay the target is T2, 6His-apo-Me2GlyDH (Rattus norvegicus, UniProt Q63342).
T2 construct: gene Dmgdh; 6His-tagged, E. coli, purified apo-form
T2 sequence (Q63342 44-857): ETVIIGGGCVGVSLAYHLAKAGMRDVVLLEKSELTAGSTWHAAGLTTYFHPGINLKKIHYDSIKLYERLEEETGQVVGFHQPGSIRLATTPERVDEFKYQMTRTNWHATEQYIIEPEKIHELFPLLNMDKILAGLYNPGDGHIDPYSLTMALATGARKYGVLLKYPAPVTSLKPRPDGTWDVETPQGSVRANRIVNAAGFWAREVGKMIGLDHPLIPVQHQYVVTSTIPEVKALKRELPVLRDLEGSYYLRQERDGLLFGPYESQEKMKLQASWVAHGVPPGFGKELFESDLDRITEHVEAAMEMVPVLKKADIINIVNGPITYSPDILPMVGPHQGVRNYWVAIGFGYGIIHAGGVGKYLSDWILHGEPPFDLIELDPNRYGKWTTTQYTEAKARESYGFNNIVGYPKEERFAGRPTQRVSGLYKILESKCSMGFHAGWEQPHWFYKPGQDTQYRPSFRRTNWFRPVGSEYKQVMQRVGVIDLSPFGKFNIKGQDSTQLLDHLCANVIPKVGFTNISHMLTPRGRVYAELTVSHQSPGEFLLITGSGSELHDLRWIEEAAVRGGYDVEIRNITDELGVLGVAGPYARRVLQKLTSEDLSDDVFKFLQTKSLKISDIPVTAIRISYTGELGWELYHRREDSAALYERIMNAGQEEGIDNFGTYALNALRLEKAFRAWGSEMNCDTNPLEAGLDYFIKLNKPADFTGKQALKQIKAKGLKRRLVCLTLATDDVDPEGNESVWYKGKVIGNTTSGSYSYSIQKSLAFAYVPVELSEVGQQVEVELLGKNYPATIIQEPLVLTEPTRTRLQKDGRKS
Described as above. In kind it is binding. As to conditions: covalent; 20 μM FAD, 50 mM Tris-HCl pH 7.5, 5 mM MgCl2, 5 mM ATP, 0.5% Triton X-100, 37°C; stimulated by rat liver mitochondrial matrix.

Assay [2] deals with T1, 6His-hFADS2. Briefly: spectrofluorimetric FAD synthesis assay, Dixon plot. In kind it is biochemical. As to conditions: 50 mM Tris-HCl pH 7.5, 5 mM MgCl2, 37°C; product inhibition: competitive vs FMN, non-competitive vs ATP.

T1 sequence (Q8NFF5 98-587 limits assumed): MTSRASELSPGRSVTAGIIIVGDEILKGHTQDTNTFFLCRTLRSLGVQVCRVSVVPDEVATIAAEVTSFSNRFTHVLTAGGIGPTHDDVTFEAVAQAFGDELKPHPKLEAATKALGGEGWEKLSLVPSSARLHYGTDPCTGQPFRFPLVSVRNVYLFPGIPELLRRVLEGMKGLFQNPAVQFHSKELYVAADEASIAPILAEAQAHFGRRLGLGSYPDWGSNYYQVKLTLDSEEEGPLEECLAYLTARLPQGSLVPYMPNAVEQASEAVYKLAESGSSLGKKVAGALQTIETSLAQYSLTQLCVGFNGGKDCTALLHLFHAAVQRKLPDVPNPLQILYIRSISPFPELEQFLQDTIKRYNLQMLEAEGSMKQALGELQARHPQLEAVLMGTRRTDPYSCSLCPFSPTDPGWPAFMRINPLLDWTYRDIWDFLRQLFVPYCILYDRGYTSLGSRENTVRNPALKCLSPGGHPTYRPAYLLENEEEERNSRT

With `Cc1cc2nc3c(=O)[nH]c(=O)nc-3n(C[C@H](O)[C@H](O)[C@H](O)COP(=O)(O)OP(=O)(O)OC[C@H]3O[C@@H](n4cnc5c(N)ncnc54)[C@H](O)[C@@H]3O)c2cc1C` [FAD], the “flavin fluorescence of protein band on SDS-PAGE under UV” value at 6His-hFADS2 [1] is listed as “hFADS loses its fluorescence upon incubation with apo-Me2GlyDH”; at 6His-apo-Me2GlyDH it was “mitochondrial matrix is able to stimulate apo-Me2GlyDH flavinylation”.

Consider `O=P(O)(O)OP(=O)(O)O` [PPi], for which, on 6His-hFADS2 [2], the “spectrofluorimetric FAD synthesis assay, Dixon plot” value was “the inhibition by PPi against FMN is consistent with competitive inhibition”.
